Assay results: ChEMBL document CHEMBL5131516, “The Ascension of Targeted Covalent Inhibitors” (J Med Chem, 2022)

Experiments:
[1] = target: T1, Tyrosine-protein kinase Tec (Homo sapiens, UniProt P42680)
T1 sequence (P42680 whole entry): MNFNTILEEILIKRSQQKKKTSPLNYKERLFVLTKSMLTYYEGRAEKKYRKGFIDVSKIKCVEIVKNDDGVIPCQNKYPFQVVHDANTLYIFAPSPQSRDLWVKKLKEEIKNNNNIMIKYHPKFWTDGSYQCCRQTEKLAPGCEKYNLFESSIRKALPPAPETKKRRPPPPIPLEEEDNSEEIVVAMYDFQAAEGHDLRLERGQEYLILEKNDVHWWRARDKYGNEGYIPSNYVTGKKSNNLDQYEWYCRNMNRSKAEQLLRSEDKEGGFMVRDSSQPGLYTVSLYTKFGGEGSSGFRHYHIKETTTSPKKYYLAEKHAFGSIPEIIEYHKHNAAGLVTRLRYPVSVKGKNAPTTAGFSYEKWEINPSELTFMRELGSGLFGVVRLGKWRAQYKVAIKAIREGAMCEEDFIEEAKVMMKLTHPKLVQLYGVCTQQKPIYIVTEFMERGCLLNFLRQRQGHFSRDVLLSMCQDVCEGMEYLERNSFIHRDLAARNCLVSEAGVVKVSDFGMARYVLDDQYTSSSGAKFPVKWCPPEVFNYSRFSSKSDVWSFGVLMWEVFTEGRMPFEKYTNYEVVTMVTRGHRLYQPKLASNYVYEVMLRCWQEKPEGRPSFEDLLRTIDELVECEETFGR
Description: Inhibition of TEC (unknown origin)

[2] = Inhibition of wild-type EGFR phosphorylation in human NCI-H1819 cells; assay type: cell-based

| SMILES | IC50 [1] | EC50 [2] |
| --- | --- | --- |
| C=CC(=O)N1CCC([C@@H]2CCNc3c(C(N)=O)c(-c4ccc(Oc5ccccc5)cc4)nn32)CC1 [ZANUBRUTINIB] | 44 nM |  |
| COc1cc2ncnc(Nc3ccc(F)c(Cl)c3)c2cc1NC(=O)/C=C/CN1CCCCC1 [DACOMITINIB ANHYDROUS] |  | 29 nM |
